Reference: PMC2033546, “Effects of somatostatin analogue RC-160 and bombesin/gastrin-releasing peptide antagonists on the growth of human small-cell and non-small-cell lung carcinomas in nude mice” (British Journal of Cancer, 1994)
Where no end group is shown, it is not given here. [ ]: non-standard residue; d: D form.

Experiments:
[1] = test system: Somatostatin receptors in membranes of SCLC H69 tumours; test: Somatostatin receptor binding on H69 tumour membranes after in vivo treatment; parameters: species or system human
From the text: (§1) Br. J. Cancer (1994). 70, 886 892 ? Macmillan Press Ltd.. […] Bombesin GRP antagonists. […] Lung carcinoma is the leading cause of cancer-related deaths in the western world. It is estimated that in 1992 there were approximately 168,000 new cases of lung cancer in the US and that about 146,000 deaths occurred from this disease (Boring et al., 1992). […] The growth factors such as bombesin/gastrin-releasing pep- tide (GRP), epidermal growth factor, (EGF), transforming growth factor a (TGF-x) and insulin-like growth factor I(IGF-I) appear to play a role in the proliferation and pro- gression of lung cancer (Cuttitta et al., 1985; Veale et al., 1987; Minuto et al., 1988; Siegfried & Owens, 1988; Macaulay et al., 1990; Tateishi et al., 1991; Damstrup et al., 1992; Sethi & Rozengurt, 1992; Rabiasz et al., 1992; Moody & Cuttitta, 1993). […] Tpi is 2,3,4,9-tetrahydro- Correspondence: A.V. Schally (151). VA Medical Center, 1601 Per- dido Street. New Orleans, LA 70146. USA. Received 1 March 1994; and in revised form 5 July 1994. Br. J. Cancer (1994), 70, 886-892 C Macmillan Press Ltd., 1994 PEPTIDE ANALOGUES IN LUNG CANCER 8U7 lH-pyrido [3,4bjindol-3-carboxylic acid, a conformationally constrained secondary amine derivate of tryptophan and Tac is thiazolidine-4-carboxylic acid. […] Animals Male athymic NCr nulmu nude mice, approximately 6 weeks old on arrival, were obtained from the NCI (Bethesda, MD, USA) and maintained under pathogen-limited conditions. Cell lines The human SCLC cell line NCI-H69, was obtained from the American Type Cell Culture (ATCC), Rockville, MD, USA and the non-SCLC cell line NCI-H157, from Dr H. Oie, NCI-Navy Medical Oncology Branch, Bethesda, MD, USA. These cell lines were cultured in RPMI-1640 medium supple- mented with 4 mM L-glutamine, 50 units ml-I penicilln G sodium, SOigml-' streptomycin sulphate, 0.125pgml-' amphotericin B and 10% fetal bovine serum at 3TC in a humidified 95% air/5% carbon dioxide atmosphere. CeLs were passaged weekly and routinely monitored for myco- plasma contamination using a detection kit (Boehringer- Mannheim, Mannheim, Germany). All culture media com- ponents were purchased from Gibco (Grand Island, NY, USA). Receptor assays Preparation of membranes for receptor studies was described previously (Halmos et al., 1993). Iodinated EGF and IGF-I were purchased from Amersham (Arlington Heights, IL, USA). Radioiodination of other peptides and receptor bind- ing of EGF, IGF-I, somatostatin and bombesin/GRP were performed as previously described (Srkalovic et al., 1989; Szepeshazi et al., 1992). Complete displacement assays on tumour membranes were done only once because of the shortage of tumour material. The LIGAND PC computerised curve-fitting programme of Munson and Rodbard (1980) was used to determine the types of receptor binding, dissociation constant (Kd) values, and the maximal binding capacity (BDj) of receptors. […] The number of mitotic and apoptotic cells per 1,000 cells was determined, and the percentage area of necrosis in tumour sections was examined using the point-counting method (Szepeshazi et al., 1991, 1992), in which the crossing points of an ocular net that coincide with necrosis in various sections are counted. Radiommunoassays Serum levels of growth hormone were determined by double- antibody radioimmunoassay (RIA) using materials supplied by the National Hormone and Pituitary Program of the National Institute of Diabetes and Digestive and Kidney Diseases (NIDDK).

human SCLC cell line H69 = test: [3H]Thymidine incorporation assay in H69 cells; format: cell-based; details: for [3H]Thymidine incorporation: Table V, mean s.e.
From the text: Br. J. Cancer (1994). 70, 886 892 ? Macmillan Press Ltd.. […] Bombesin GRP antagonists. […] Lung carcinoma is the leading cause of cancer-related deaths in the western world. It is estimated that in 1992 there were approximately 168,000 new cases of lung cancer in the US and that about 146,000 deaths occurred from this disease (Boring et al., 1992). […] The growth factors such as bombesin/gastrin-releasing pep- tide (GRP), epidermal growth factor, (EGF), transforming growth factor a (TGF-x) and insulin-like growth factor I(IGF-I) appear to play a role in the proliferation and pro- gression of lung cancer (Cuttitta et al., 1985; Veale et al., 1987; Minuto et al., 1988; Siegfried & Owens, 1988; Macaulay et al., 1990; Tateishi et al., 1991; Damstrup et al., 1992; Sethi & Rozengurt, 1992; Rabiasz et al., 1992; Moody & Cuttitta, 1993). […] Tpi is 2,3,4,9-tetrahydro- Correspondence: A.V. Schally (151). VA Medical Center, 1601 Per- dido Street. New Orleans, LA 70146. USA. Received 1 March 1994; and in revised form 5 July 1994. Br. J. Cancer (1994), 70, 886-892 C Macmillan Press Ltd., 1994 PEPTIDE ANALOGUES IN LUNG CANCER 8U7 lH-pyrido [3,4bjindol-3-carboxylic acid, a conformationally constrained secondary amine derivate of tryptophan and Tac is thiazolidine-4-carboxylic acid. […] Animals Male athymic NCr nulmu nude mice, approximately 6 weeks old on arrival, were obtained from the NCI (Bethesda, MD, USA) and maintained under pathogen-limited conditions. Cell lines The human SCLC cell line NCI-H69, was obtained from the American Type Cell Culture (ATCC), Rockville, MD, USA and the non-SCLC cell line NCI-H157, from Dr H. Oie, NCI-Navy Medical Oncology Branch, Bethesda, MD, USA. These cell lines were cultured in RPMI-1640 medium supple- mented with 4 mM L-glutamine, 50 units ml-I penicilln G sodium, SOigml-' streptomycin sulphate, 0.125pgml-' amphotericin B and 10% fetal bovine serum at 3TC in a humidified 95% air/5% carbon dioxide atmosphere. CeLs were passaged weekly and routinely monitored for myco- plasma contamination using a detection kit (Boehringer- Mannheim, Mannheim, Germany). All culture media com- ponents were purchased from Gibco (Grand Island, NY, USA). Receptor assays Preparation of membranes for receptor studies was described previously (Halmos et al., 1993). Iodinated EGF and IGF-I were purchased from Amersham (Arlington Heights, IL, USA). Radioiodination of other peptides and receptor bind- ing of EGF, IGF-I, somatostatin and bombesin/GRP were performed as previously described (Srkalovic et al., 1989; Szepeshazi et al., 1992). Complete displacement assays on tumour membranes were done only once because of the shortage of tumour material. The LIGAND PC computerised curve-fitting programme of Munson and Rodbard (1980) was used to determine the types of receptor binding, dissociation constant (Kd) values, and the maximal binding capacity (BDj) of receptors. In order to determine the specificity of the binding sites for radiolabelled EGF, IGF-I, somatostatin and bombesin to lung cancer membranes, various structuraly related and unrelated peptides were tested for their ability to inhibit the binding of the tracers. Histological procedure The histological procedures were the same as described previously (Szepeshazi et al., 1991, 1992). The number of mitotic and apoptotic cells per 1,000 cells was determined, and the percentage area of necrosis in tumour sections was examined using the point-counting method (Szepeshazi et al., 1991, 1992), in which the crossing points of an ocular net that coincide with necrosis in various sections are counted. Radiommunoassays Serum levels of growth hormone were determined by double- antibody radioimmunoassay (RIA) using materials supplied by the National Hormone and Pituitary Program of the National Institute of Diabetes and Digestive and Kidney Diseases (NIDDK).

[2] = test system: EGF receptors in membranes of SCLC H69 tumours; test: EGF receptor binding on H69 tumour membranes after in vivo treatment; parameters: species or system human
From the text: as §1

[dF]CY[dW]KVCW-NH2 (cysteine pairing not given here) [RC-160, Somatostatin analogue RC-160]
Somatostatin maximal binding capacity (Bmax) ([1]; Table IV, Experiment I (SCLC-H69), tumour membranes after in vivo treatment, control 450, done once): 570 fmol mg-'protein
Binding capacity of receptors for somatostatin on H69 tumours (in words) ([1]; after in vivo treatment): increased the binding capacity of receptors for somatostatin
Suppression of DNA synthesis (human SCLC cell line H69; "At 0.0 ILg ml-'" RC-160, 5 days of incubation, H69 cells): about 43%
[3H]thymidine incorporation into DNA of H69 cells (in words) (human SCLC cell line H69; RC-160 0.001 to 10.0 µg/ml, 5 days, RC-3005 or RC-3009 5.0 and 25.0 µg/ml, 3 days): significantly inhibited
[3H]Thymidine incorporation (human SCLC cell line H69; 0.001 µg/ml, 5 days, *P<0.05 vs control): 81.6 4.6* per cent of control
[3H]Thymidine incorporation (human SCLC cell line H69; 0.01 µg/ml, 5 days, *P<0.05 vs control): 80.0 4.1* per cent of control
[3H]Thymidine incorporation (human SCLC cell line H69; 0.1 µg/ml, 5 days, **P<0.01 vs control): 71.6 ± 3.4** per cent of control
EGF maximal binding capacity (Bmax) ([2]; Table IV, Experiment I (SCLC-H69), tumour membranes after in vivo treatment, control 278, ten-point displacement in triplicate tubes, done once): 174 fmol mg' protein
EGF receptors on H69 tumours (in words) ([2]; after in vivo treatment): down-regulated
